SMILES strings stand for the structures.

The target in this experiment is T1, cathepsin D isolated from the human liver (Homo sapiens, UniProt P07339).
T1 construct: cathepsin D isolated from the human liver (Sigma-Aldrich); purchased Sigma-Aldrich; host or cells: human liver (tissue-derived, not recombinant)
Kind of experiment: In-vitro fluorescence assay for identification of cathepsin D inhibitors. In kind it is biochemical. Conditions: human liver cathepsin D 1.4 nM, pH 5.5; read-out: CatD assay IC50-(M). The method, then: EXAMPLE 4: IN-VITRO FLUORESCENCE ASSAY FOR IDENTIFICATION OF CATHEPSIN D INHIBITORS
In order to identify modulators of cathepsin D activity, a continuous enzymatic test was carried out with a synthetic peptide which carries a fluorescent group (MCA=(7-methoxycoumarin-4-yl)acetyl) which is quenched by energy transfer from a Dpn (2,4 dinitrophenyl) group on the same molecule, in Greiner 384-well nb microtitre plates. Cleavage of the peptidic substrate by cathepsin D causes an increase in the fluorescence intensity. In order to determine the efficacy of substances, the time-dependent increase in the fluorescence intensity in the presence of the substance was compared with the time-dependent increase in fluorescence in the absence of substances. The reference substance used was pepstatin A (Sigma-Aldrich). The substrate used was MCA-GKPILFFRLK(Dnp)d-R—NH2 (Enzo Life Sciences, Lörrach). The enzyme employed was cathepsin D isolated from the human liver (Sigma-Aldrich) in a final concentration of 1.4 nM. The test was carried out in 100 mM sodium acetate buffer, 1.25% (v/v) of DMSO, 0.25% (w/v) of Chaps, pH 5.5. 2 μl of each substance solution with serially diluted substance concentration were added to in each case 4 μl of cathepsin D solution and incubated at room temperature for 10 min. The reaction was started by addition of 2 μl of substrate solution (final concentration 5 μM). After carrying out a starting-point fluorescence measurement (excitation wavelength 340 nm/emission wavelength 450 nm) using an Envision multilabel reader (Perkin Elmer), the reaction was incubated at room temperature for 60 min. The amount of peptide fragment cleaved off during the reaction time was subsequently measured by determination of the increase in the fluorescence intensity at 450 nm (excitation wavelength 340 nm).

T1 sequence (P07339 65-161 limits assumed): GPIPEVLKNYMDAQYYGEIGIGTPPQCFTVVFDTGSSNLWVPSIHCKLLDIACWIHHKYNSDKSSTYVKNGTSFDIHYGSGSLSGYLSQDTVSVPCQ
T1 sequence (P07339 169-412 limits assumed): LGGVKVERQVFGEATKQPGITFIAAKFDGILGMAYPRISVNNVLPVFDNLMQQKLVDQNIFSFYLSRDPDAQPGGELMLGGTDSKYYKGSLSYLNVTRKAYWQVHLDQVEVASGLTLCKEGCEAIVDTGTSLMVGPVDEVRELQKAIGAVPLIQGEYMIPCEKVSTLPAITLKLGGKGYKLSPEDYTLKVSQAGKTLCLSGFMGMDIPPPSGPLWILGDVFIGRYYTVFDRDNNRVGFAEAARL

One may read the IC50 as the concentration that inhibits the measured activity by half. With `CC[C@H](C)[C@H](NC(=O)C[C@H](O)[C@H](Cc1ccccc1)NC(=O)[C@@H](NC(=O)CCCc1ccccc1)C(C)C)C(=O)N[C@H](C(=O)OCc1ccccc1)C(C)C` [Compound 2, benzly (S)-2-((2S,3S)-2-{(3S,4S)-3-hydroxy-4-[(S)-3-methyl-2-(4-phenylbutyrylamino)butyrylamino]-5-phenylpentanoylamino}-3-methylpentanoylamino)-3-methylbutyrate], the half-maximal inhibitory concentration (IC50) turned out to be 7.1e-08 M.

In the case of `CC[C@H](C)[C@H](NC(=O)C[C@H](O)[C@H](Cc1ccccc1)NC(=O)[C@@H](NC(=O)C(C)(C)Oc1ccc2ccccc2c1)C(C)C)C(=O)N[C@H](C(=O)O)C(C)C` [Compound 6, (S)-2-[(2S,3S)-2-((3S,4S)-3-hydroxy-4-{(S)-3-methyl-2-[2-methyl-2-(naphthalen-2-yloxy)propionylamino]butyrylamino}-5-phenylpentanoylamino)-3-methylpentanoylamino]-3-methylbutyric acid], the IC50 was determined as 2.3e-07 M.

For `CC[C@H](C)[C@H](NC(=O)C[C@H](O)[C@H](Cc1ccccc1)NC(=O)[C@@H](NC(=O)COc1ccc2ccccc2c1)C(C)C)C(=O)N[C@H](C(=O)OCc1ccccc1)C(C)C` [Compound 7], the IC50 stood at 3.5e-07 M.

Take `CC[C@H](C)[C@H](NC(=O)C[C@H](O)[C@H](Cc1ccccc1)NC(=O)[C@@H](NC(=O)Cc1ccc(OC)c(OC)c1)C(C)C)C(=O)N[C@H](C(=O)OCc1ccccc1)C(C)C` [Compound 10, benzly (S)-2-[(2S,3S)-2-((3S,4S)-4-{(S)-2-[2-(3,4-dimethoxyphenyl)-acetylamino]-3-methylbutyrylamino}-3-hydroxy-5-phenylpentanoylamino)-3-methylpentanoylamino]-3-methylbutyrate]: the 50% inhibitory concentration (IC50) was found to be 2.9e-08 M.

Regarding `CC[C@H](C)[C@H](NC(=O)C[C@H](O)[C@H](Cc1ccccc1)NC(=O)[C@@H](NC(=O)Cc1ccc(OC)cc1)C(C)C)C(=O)N[C@H](C(=O)OCc1ccccc1)C(C)C` [Compound 11, benzly (S)-2-[(2S,3S)-2-((3S,4S)-3-hydroxy-4-{(S)-2-[2-(4-methoxy-phenyl)acetylamino]-3-methylbutyrylamino}-5-phenylpentanoylamino)-3-methylpentanoylamino]-3-methylbutyrate], the IC50 amounted to 9e-08 M.

For `CCOc1cccc(CC(=O)N[C@H](C(=O)N[C@@H](Cc2ccccc2)[C@@H](O)CC(=O)N[C@H](C(=O)N[C@H](C(=O)OCc2ccccc2)C(C)C)[C@@H](C)CC)C(C)C)c1` [Compound 12, benzly (S)-2-[(2S,3S)-2-((3S,4S)-4-{(S)-2-[2-(3-ethoxyphenyl)-acetylamino]-3-methylbutyrylamino}-3-hydroxy-5-phenylpentanoylamino)-3-methylpentanoylamino]-3-methylbutyrate], the IC50 was found to be 2.5e-08 M.

Turning to `CC[C@H](C)[C@H](NC(=O)C[C@H](O)[C@H](Cc1ccccc1)NC(=O)[C@@H](NC(=O)Cc1cccc(OC)c1)C(C)C)C(=O)N[C@H](C(=O)OCc1ccccc1)C(C)C` [Compound 13, benzly (S)-2-[(2S,3S)-2-((3S,4S)-3-hydroxy-4-{(S)-2-[2-(3-methoxy-phenyl)acetylamino]-3-methylbutyrylamino}-5-phenylpentanoylamino)-3-methylpentanoylamino]-3-methylbutyrate], the IC50 stood at 2.5e-08 M.

In the case of `CC[C@H](C)[C@H](NC(=O)C[C@H](O)[C@H](Cc1ccccc1)NC(=O)[C@@H](NC(=O)Cc1ccc(OC)c(OC)c1)C(C)C)C(=O)N[C@H](C(=O)O)C(C)C` [Compound 14, (S)-2-[(2S,3S)-2-((3S,4S)-4-{(S)-2-[2-(3,4-dimethoxyphenyl)acetylamino]-3-methylbutyrylamino}-3-hydroxy-5-phenylpentanoylamino)-3-methylpentanoylamino]-3-methylbutyric acid], the IC50 came to 1.5e-07 M.

Turning to `CC[C@H](C)[C@H](NC(=O)C[C@H](O)[C@H](Cc1ccccc1)NC(=O)[C@@H](NC(=O)Cc1ccc2ccccc2c1)C(C)C)C(=O)N[C@H](C(=O)OCc1ccccc1)C(C)C` [Compound 16, benzly (S)-2-((2S,3S)-2-{(3S,4S)-3-hydroxy-4-[(S)-3-methyl-2-(2-naphthalen-2-ylacetylamino)butyrylamino]-5-phenylpentanoylamino}-3-methylpentanoylamino)-3-methylbutyrate], the IC50 amounted to 1.5e-07 M.

For the compound `CCOc1cccc(CC(=O)N[C@H](C(=O)N[C@@H](Cc2ccccc2)[C@@H](O)CC(=O)N[C@H](C(=O)N[C@H](C(=O)O)C(C)C)[C@@H](C)CC)C(C)C)c1` [Compound 17, (S)-2-[(2S,3S)-2-((3S,4S)-4-{(S)-2-[2-(3-ethoxyphenyl)acetylamino]-3-methylbutyrylamino}-3-hydroxy-5-phenylpentanoylamino)-3-methylpentanoylamino]-3-methylbutyric acid], the IC50 is 1.55e-08 M.

`CC[C@H](C)[C@H](NC(=O)C[C@H](O)[C@H](Cc1ccccc1)NC(=O)[C@@H](NC(=O)Cc1cc(OC(F)(F)F)ccc1OC)C(C)C)C(=O)N[C@H](C(=O)OCc1ccccc1)C(C)C` [Compound 18, benzly (S)-2-[(2S,3S)-2-((3S,4S)-3-hydroxy-4-{(S)-2-[2-(2-methoxy-5-trifluoromethoxyphenyl)acetylamino]-3-methylbutyrylamino}-5-phenylpentanoylamino)-3-methylpentanoylamino]-3-methylbutyrate]: the IC50 was determined as 3.4e-08 M.

Regarding `CC[C@H](C)[C@H](NC(=O)C[C@H](O)[C@H](Cc1ccccc1)NC(=O)[C@@H](NC(=O)Cc1cccc(Oc2ccccc2)c1)C(C)C)C(=O)N[C@H](C(=O)OCc1ccccc1)C(C)C` [Compound 19, benzly (S)-2-[(2S,3S)-2-((3S,4S)-3-hydroxy-4-{(S)-3-methyl-2-[2-(3-phenoxyphenyl)acetylamino]butyrylamino}-5-phenylpentanoylamino)-3-methylpentanoylamino]-3-methylbutyrate], the IC50 worked out at 4e-08 M.

For `CC[C@H](C)[C@H](NC(=O)C[C@H](O)[C@H](Cc1ccccc1)NC(=O)[C@@H](NC(=O)Cc1cccc2ccccc12)C(C)C)C(=O)N[C@H](C(=O)OCc1ccccc1)C(C)C` [Compound 21, benzly (S)-2-((2S,3S)-2-{(3S,4S)-3-hydroxy-4-[(S)-3-methyl-2-(2-naphthalen-1-ylacetylamino)butyrylamino]-5-phenylpentanoylamino}-3-methylpentanoylamino)-3-methylbutyrate], the IC50 stood at 1.2e-06 M.

On to `CC[C@H](C)[C@H](NC(=O)C[C@H](O)[C@H](Cc1ccccc1)NC(=O)[C@@H](NC(=O)Cc1ccccc1OC)C(C)C)C(=O)N[C@H](C(=O)OCc1ccccc1)C(C)C` [Compound 22, benzly (S)-2-[(2S,3S)-2-((3S,4S)-3-hydroxy-4-{(S)-2-[2-(2-methoxy-phenyl)acetylamino]-3-methylbutyrylamino}-5-phenylpentanoylamino)-3-methylpentanoylamino]-3-methylbutyrate], for which the IC50 worked out at 2.1e-07 M.

On to `CC[C@H](C)[C@H](NC(=O)C[C@H](O)[C@H](Cc1ccccc1)NC(=O)[C@@H](NC(=O)Cc1cc(OC(F)(F)F)ccc1OC)C(C)C)C(=O)N[C@H](C(=O)O)C(C)C` [Compound 24, (S)-2-[(2S,3S)-2-((3S,4S)-3-hydroxy-4-{(S)-2-[2-(2-methoxy-5-trifluoromethoxyphenyl)acetylamino]-3-methylbutyrylamino}-5-phenylpentanoylamino)-3-methylpentanoylamino]-3-methylbutyric acid], for which the 50% inhibitory concentration (IC50) came to 1.1e-08 M.

`CC[C@H](C)[C@H](NC(=O)C[C@H](O)[C@H](Cc1ccccc1)NC(=O)[C@@H](NC(=O)Cc1ccc2ccccc2c1)C(C)C)C(=O)N[C@H](C(=O)O)C(C)C` [Compound 25, (S)-2-((2S,3S)-2-{(3S,4S)-3-hydroxy-4-[(S)-3-methyl-2-(2-naphthalen-2-ylacetylamino)butyrylamino]-5-phenylpentanoylamino}-3-methylpentanoylamino)-3-methylbutyric acid]: the half-maximal inhibitory concentration (IC50) was 8.1e-09 M.

For the compound `CC[C@H](C)[C@H](NC(=O)C[C@H](O)[C@H](Cc1ccccc1)NC(=O)[C@@H](NC(=O)c1cccc(OC(C)(C)C)c1)C(C)C)C(=O)N[C@H](C(=O)O)C(C)C` [Compound 26, (S)-2-((2S,3S)-2-{(3S,4S)-4-[(S)-2-(3-tert-butoxybenzoylamino)-3-methylbutyrylamino]-3-hydroxy-5-phenylpentanoylamino}-3-methylpentanoylamino)-3-methylbutyric acid], the IC50 came to 1.2e-07 M.

For `CC[C@H](C)[C@H](NC(=O)C[C@H](O)[C@H](Cc1ccccc1)NC(=O)[C@@H](NC(=O)Cc1cccc(Oc2ccccc2)c1)C(C)C)C(=O)N[C@H](C(=O)O)C(C)C` [Compound 27, (S)-2-[(2S,3S)-2-((3S,4S)-3-hydroxy-4-{(S)-3-methyl-2-[2-(3-phenoxyphenyl)acetylamino]butyrylamino}-5-phenylpentanoylamino)-3-methylpentanoylamino]-3-methylbutyric acid], the IC50 is 1.2e-08 M.

For the origin of these results see patent US10077288B2, “Hydroxystatin derivatives for the treatment of arthrosis” (Merck Patent GmbH, priority 2012, dated 2018).
